# Laboratory results as given in patent publication US10793563B2, “GCN2 inhibitors and uses thereof” (Merck Patent GmbH, priority 2018, dated 2020).
# Target: GCN2 kinase (Homo sapiens (Human), UniProt Q9P2K8)
# Experiment: GCN2 Enzyme Inhibition Assay (Transcreener ADP2 fluorescence polarization)
# Assay type: biochemical
# Conditions: 280 μM ATP, 200 μM (RS)7 peptide, 4 nM GCN2, 25° C.
# Procedure, shortened: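 At 25 °C, GCN2 kinase (typical final concentration 4 nM) and (RS)7 peptide in Tris-HCl pH 7.5 buffer with MgCl2, NaCl and DTT were preincubated with compound for 10 min, then ATP was added for a 1 h reaction. ADP was read by FP with antibody/Alexa633 tracer. Non-linear tight-binding analysis gave IC50 and apparent Ki.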
# GCN2 kinase, sequence (Q9P2K8 whole entry): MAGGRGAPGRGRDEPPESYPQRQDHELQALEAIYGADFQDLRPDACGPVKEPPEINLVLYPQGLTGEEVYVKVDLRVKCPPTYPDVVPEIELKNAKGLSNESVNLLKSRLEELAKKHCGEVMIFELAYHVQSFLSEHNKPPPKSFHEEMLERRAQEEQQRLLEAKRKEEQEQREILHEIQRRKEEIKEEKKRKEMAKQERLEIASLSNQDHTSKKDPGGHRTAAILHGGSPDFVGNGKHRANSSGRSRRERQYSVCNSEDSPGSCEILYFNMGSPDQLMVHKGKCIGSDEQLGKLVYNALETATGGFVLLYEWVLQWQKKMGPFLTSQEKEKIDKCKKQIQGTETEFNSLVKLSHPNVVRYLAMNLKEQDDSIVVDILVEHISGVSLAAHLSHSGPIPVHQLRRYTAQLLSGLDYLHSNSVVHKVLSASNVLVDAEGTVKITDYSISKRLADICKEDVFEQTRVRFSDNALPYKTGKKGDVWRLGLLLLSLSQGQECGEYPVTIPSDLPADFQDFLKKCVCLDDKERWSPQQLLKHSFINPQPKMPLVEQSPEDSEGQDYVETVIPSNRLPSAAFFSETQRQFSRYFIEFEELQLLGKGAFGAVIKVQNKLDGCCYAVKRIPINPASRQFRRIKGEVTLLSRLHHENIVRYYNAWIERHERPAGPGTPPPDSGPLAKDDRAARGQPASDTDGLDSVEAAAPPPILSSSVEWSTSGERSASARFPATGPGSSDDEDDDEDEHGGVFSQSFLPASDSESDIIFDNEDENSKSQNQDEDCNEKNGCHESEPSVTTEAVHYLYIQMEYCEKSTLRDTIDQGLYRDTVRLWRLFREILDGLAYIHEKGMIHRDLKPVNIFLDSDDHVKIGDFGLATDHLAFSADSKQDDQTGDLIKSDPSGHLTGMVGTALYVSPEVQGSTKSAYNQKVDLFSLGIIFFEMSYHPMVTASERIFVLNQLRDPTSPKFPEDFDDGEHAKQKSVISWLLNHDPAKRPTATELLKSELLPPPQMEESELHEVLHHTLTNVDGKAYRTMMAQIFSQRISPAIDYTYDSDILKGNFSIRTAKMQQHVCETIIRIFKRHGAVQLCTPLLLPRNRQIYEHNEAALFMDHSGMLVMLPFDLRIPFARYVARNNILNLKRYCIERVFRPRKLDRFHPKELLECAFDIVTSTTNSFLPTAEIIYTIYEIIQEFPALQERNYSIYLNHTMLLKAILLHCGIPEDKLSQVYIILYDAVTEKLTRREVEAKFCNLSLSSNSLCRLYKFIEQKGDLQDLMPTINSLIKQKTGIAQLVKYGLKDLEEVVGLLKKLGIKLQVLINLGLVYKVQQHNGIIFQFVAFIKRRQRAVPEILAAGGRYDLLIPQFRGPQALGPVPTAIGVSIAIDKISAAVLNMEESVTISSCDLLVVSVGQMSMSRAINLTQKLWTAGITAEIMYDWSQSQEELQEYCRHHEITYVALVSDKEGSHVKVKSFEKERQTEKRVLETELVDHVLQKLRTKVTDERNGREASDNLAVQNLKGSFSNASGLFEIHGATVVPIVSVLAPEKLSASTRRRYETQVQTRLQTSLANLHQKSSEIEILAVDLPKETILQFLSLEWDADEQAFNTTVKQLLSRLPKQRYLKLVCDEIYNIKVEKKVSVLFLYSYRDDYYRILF
row,IC50,SMILES
1,< 10 nM,"FC(F)(F)c1ccc2ncc(-c3nccc(N4CCN(CC5COC5)C(c5cn[nH]c5)C4)n3)n2c1 (stereo not shown) [I-374, 3-(4-(4-(oxetan-3-ylmethyl)-3-(1H-pyrazol-4-yl)piperazin-1-yl)pyrimidin-2-yl)-6-(trifluoromethyl)imidazo[1,2-a]pyridine]"
2,100 to 1000 nM,"C[C@H]1[C@H](CNS(C)(=O)=O)NCCN1c1ccnc(-c2cnc3ccc(C(F)(F)F)cn23)n1 [I-471, N-(((2 S,3 S)-3-methyl-4-(2-(6-(trifluoromethyl)imidazo[1,2-a]pyridin-3-yl)pyrimidin-4-yl)piperazin-2-yl)methyl)methanesulfonamide]"
3,< 10 nM,"Cc1[nH]ncc1[C@@H]1CN(c2ccnc(-c3cnc4cc(F)c(C5CC5)cn34)n2)C[C@H](C)O1 [I-429, (2S,6R)-4-(2-(6-cyclopropyl-7-fluoroimidazo[1,2-a]pyridin-3-yl)pyrimidin-4-yl)-2-methyl-6-(5-methyl-1H-pyrazol-4-yl)morpholine]"
4,10 to 100 nM,"NC(=O)CC1CCCN(c2ccnc(-c3cnc4ccc(C(F)(F)F)cn34)n2)C1 (stereo not shown) [I-166, 2-(1-(2-(6-(trifluoromethyl)imidazo[1,2-a]pyridin-3-yl)pyrimidin-4-yl)piperidin-3-yl)acetamide]"
5,100 to 1000 nM,"Cc1nnc(C)n1[C@H]1C[C@H](C)CN(c2nccc(-c3cnc4ccc(C(F)(F)F)cn34)n2)C1 [I-465, 3-(2-((3S,5S)-3-(3,5-dimethyl-4H-1,2,4-triazol-4-yl)-5-methylpiperidin-1-yl)pyrimidin-4-yl)-6-(trifluoromethyl)imidazo[1,2-a]pyridine]"
6,10 to 100 nM,"Fc1cccc(CN2CCN(c3ccnc(-c4cnc5ccc(C(F)(F)F)cn45)n3)CC2c2cn[nH]c2)c1 (stereo not shown) [I-458, 3-(4-(4-(3-fluorobenzyl)-3-(1H-pyrazol-4-yl)piperazin-1-yl)pyrimidin-2-yl)-6-(trifluoromethyl)imidazo[1,2-a]pyridine]"
7,100 to 1000 nM,"C[C@@H]1CN(c2ccnc(-c3cnc4ccc(C(F)(F)F)cn34)n2)C[C@H](C)N1S(C)(=O)=O [I-439, 3-(4-(cis-3,5-dimethyl-4-(methylsulfonyl)piperazin-1-yl)pyrimidin-2-yl)-6-(trifluoromethyl)imidazo[1,2-a]pyridine]"
8,100 to 1000 nM,"C[C@@H]1CN(c2nccc(-c3cnc4ccc(C(F)(F)F)cn34)n2)C[C@H](c2nn[nH]n2)O1 [I-190, (2R,6R)-2-methyl-6-(2H-tetrazol-5-yl)-4-(4-(6-(trifluoromethyl)imidazo[1,2-a]pyridin-3-yl)pyrimidin-2-yl)morpholine]"
9,10 to 100 nM,"N#CC1(C(=O)N2CCN(c3nccc(-c4cnc5ccc(C(F)(F)F)cn45)n3)C[C@@H]2c2cn[nH]c2)CC1 (stereo in doubt) [I-551, 1-(2-(1H-pyrazol-4-yl)-4-(4-(6-(trifluoromethyl)imidazo[1,2-a]pyridin-3-yl)pyrimidin-2-yl)piperazine-1-carbonyl)cyclopropane-1-carbonitrile]"
10,< 10 nM,"C[C@H]1CN(c2ccnc(-c3cnc4ccc(C(F)(F)F)cn34)n2)C[C@@H](C(N)=O)O1 [I-264, (2S,6S)-6-methyl-4-(2-(6-(trifluoromethyl)imidazo[1,2-a]pyridin-3-yl)pyrimidin-4-yl)morpholine-2-carboxamide]"
11,100 to 1000 nM,"CC(=O)N1C(C)CN(c2ccnc(-c3cnc4ccc(Cl)cn34)n2)CC1c1c[nH]nc1C (stereo not shown) [I-276, 1-(4-(2-(6-chloroimidazo[1,2-a]pyridin-3-yl)pyrimidin-4-yl)-2-methyl-6-(3-methyl-1H-pyrazol-4-yl)piperazin-1-yl)ethan-1-one]"

# Same assay, conditions: Ki(app); 280 μM ATP, 200 μM (RS)7 peptide, 4 nM GCN2, 25° C.
row,Ki,SMILES
1,10 to 100 nM,"Cc1nnc([C@@H]2CN(c3ccnc(-c4cnc5ccc(Cl)cn45)n3)C[C@H](C)O2)o1 (relative stereo) [I-95, cis-4-(2-{6-chloroimidazo[1,2-a]pyridin-3-yl}pyrimidin-4-yl)-2-methyl-6-(5-methyl-1,3,4-oxadiazol-2-yl)morpholine]"
2,< 10 nM,"Clc1ccc2ncc(-c3nccc(N4CCCC(c5cn[nH]c5)C4)n3)n2c1 (stereo not shown) [I-100, 2-{6-chloroimidazo[1,2-a]pyridin-3-yl}-4-[3-(1H-pyrazol-4-yl)piperidin-1-yl]pyrimidine]"
